Columns and labels:
TM91C235 cells = assay: In vitro reversal activity (cell growth suppression, 3H-hypoxanthine incorporation) in TM91C235 cells; format: cell-based, Plasmodium falciparum; settings: for Control % sup: test compounds only
Source text: For quantitative in vitro drug susceptibility testing, two well characterized P. falciparum clones, W2 and D6, were used. See Oduola et al. (1988) Exp Parasitol 66:86-95, which is herein incorporated by reference. W2 is a clone of the Indochina I isolate and is resistant to chloroquine and pyrimethamine, but susceptible to mefloquine. D6 is a clone from the Sierra I/UNC isolate and is susceptible to chloroquine and pyrimethamine, but has reduced susceptibilities to mefloquine and halofantrine. TM91C235 was isolates from Thailand and is highly resistant to mefloquine, chloroquine, and quinine.
The in vitro antimalarial drug susceptibility assay used is a modification of the procedures first published by Desjardins, et al. with modifications developed by Milhous, et al. See Desjardins, R. E., et al. (1979) Antimicrobial Agents Chemother 16:710-718; and Milhous, et al. (1985) Antimicrobial Agents Chemother 27:525-530, which are herein incorporated by reference. In brief, the assay is based on the incorporation of radiolabeled hypoxanthine by the parasites and inhibition of isotope incorporation is attributed to activity of known or candidate antimalarial drugs. For each assay, proven antimalarials, such as chloroquine, mefloquine, quinine, artemisinin, pyrimethamine and sulfadoxine, were used as controls. The incubation period was 66 hours and the starting parasitemia was 0.2% with a 1% hematocrit. The media used was RPMI-1640 culture media with no folate or p-aminobenzoic acid (PABA). Albumax may be used instead of 10% normal heat inactivated human plasma.
If a candidate compound was tested without any prior knowledge of its activity or solubility, the compound was dissolved directly in dimethylsulfoxide (DMSO) and diluted 400 fold with complete culture media. These unknown compounds were normally started at a highest concentration of about 50,000 ng/ml. The compounds were then diluted 2-fold, 11 times, to give a concentration range of about 1,048-fold. These dilutions were performed automatically by a Biomek 1000 or 2000 Liquid Handling System into 96-well microtiter plates.
(§1) 25 μl of each diluted candidate compound was then transferred to test plates, 200 μl of parasitized erythrocytes (0.2% parasitemia and 1% hematocrit) were added, and incubated at 37° C. in a controlled environment of 5% CO2, 5% O2 and 90% N2. After 42 hours, 25 μl of ^3H-hypoxanthine was added and the plates were incubated for an additional 24 hours. At the end of the 66 hour incubation period, the plates were frozen at −70° C. to lyse the red cells and later thawed and harvested onto glass fiber filter mats by using a 96-well cell harvester. The filter mats were then counted in a scintillation counter and the data was analyzed.
Each of these test compounds were tested under three different concentrations, 5000, 500, and 50 ng/ml, in the presence of 10 ng/ml of chloroquine and 5 ng/ml of mefloquine. […] Thus, the compounds of the present invention may be used to treat, prevent or inhibit drug resistant malaria.

RCS = assay: FIC index in RCS isolate; format: cell-based, Plasmodium falciparum; set-up: key: 1.0 = additive; <1.0 synergy; >1.0 antagonism; settings: isolate from Brazil; same method as for W-2
Procedure: (§2) Fifty percent inhibitory concentrations (IC50s) were determined for each candidate compound alone and for candidate compounds in fixed combinations of their respective IC50s (1:1, 1:3, 3:1). […] See Elion, G. V., et al. (1954) J Biol Chem 208:477-488, which is herein incorporated by reference. The FIC is the actual IC50 of one compound in the presence of a second compound but is expressed as a fraction of its IC50 when used alone. This index is a mathematical representation of the isobologram such that an FIC index of 1.0 represents the line of additive on the isobologram. An FIC index of less than 1.0 represents synergy or potentiation and an FIC index of greater than 1.0 represents antagonism.
(§3) Parasites from different regions responded differently to the compounds of the present invention. The same assay method described above for W-2 was used except that the strains used were isolated from Thailand, Brazil, and Peru, respectively.

Peruvian PC49 = assay: FIC index in Peruvian PC49 isolate; format: cell-based, Plasmodium falciparum; set-up: key: 1.0 = additive; <1.0 synergy; >1.0 antagonism; settings: isolate from South America (Peru); same method as for W-2
Procedure: as §2, §3

[1] = tested on: Plasmodium falciparum W2 clone; assay: FIC index with chloroquine (isobologram analysis) in W2 clone; format: cell-based; set-up: key: 1.0 = additive; <1.0 = synergy; >1.0 = antagonism; settings: 1:1 combination of drug and chloroquine; chloroquine-resistant W2 clone
Procedure: In brief, the assay is based on the incorporation of radiolabeled hypoxanthine by the parasites and inhibition of isotope incorporation is attributed to activity of known or candidate antimalarial drugs. For each assay, proven antimalarials, such as chloroquine, mefloquine, quinine, artemisinin, pyrimethamine and sulfadoxine, were used as controls. The incubation period was 66 hours and the starting parasitemia was 0.2% with a 1% hematocrit. […] Albumax may be used instead of 10% normal heat inactivated human plasma.
as §1
The FIC is the actual IC50 of one compound in the presence of a second compound but is expressed as a fraction of its IC50 when used alone. This index is a mathematical representation of the isobologram such that an FIC index of 1.0 represents the line of additive on the isobologram. An FIC index of less than 1.0 represents synergy or potentiation and an FIC index of greater than 1.0 represents antagonism.
In the isobologram graphs as shown in FIGS. 1-3, the x-axis is fractional inhibitory concentration (FIC) of chloroquine and the y-axis is FIC of chemosensitizing agent. The FIC is the actual IC50 of one drug in the presence of the second drug but is expressed as a fraction of its IC50 when used alone. If the isobologram graph is a straight line, it represents an additive effect of the two drugs. If the graph forms a concave curve below the line, it indicates synergy or potentiation of the combination. Below the line means synergy or potentiation and above the line means antagonism.

TM91C235 = assay: FIC index in TM91C235 isolate; format: cell-based, Plasmodium falciparum; set-up: key: 1.0 = additive; <1.0 = synergy; >1.0 = antagonism; settings: isolate from Southeast Asia (Thailand); same method as for W-2
Procedure: Fifty percent inhibitory concentrations (IC50s) were determined for each candidate compound alone and for candidate compounds in fixed combinations of their respective IC50s (1:1, 1:3, 3:1). […] The FIC is the actual IC50 of one compound in the presence of a second compound but is expressed as a fraction of its IC50 when used alone. This index is a mathematical representation of the isobologram such that an FIC index of 1.0 represents the line of additive on the isobologram. An FIC index of less than 1.0 represents synergy or potentiation and an FIC index of greater than 1.0 represents antagonism.
The same assay method described above for W-2 was used except that the strains used were isolated from Thailand, Brazil, and Peru, respectively.

[2] = test compound 50 ng/ml combined with 5 ng/ml mefloquine
[3] = test compound 500 ng/ml combined with 5 ng/ml mefloquine
[4] = test compound 500 ng/ml combined with 10 ng/ml chloroquine
[5] = test compound 5000 ng/ml combined with 5 ng/ml mefloquine
[6] = test compound 5000 ng/ml combined with 10 ng/ml chloroquine

c1ccc2c(c1)CCc1ccccc1N2CCCCN1CCCC1 [compound 7m, 5-(4-Pyrrolidin-1-yl-butyl)iminodibenzyl]
Mefloquine % SUP (TM91C235 cells; [2]): 64% | Mefloquine % SUP (TM91C235 cells; [3]): 96% | Chloroquine % sup (TM91C235 cells; [4]): 100% | Mefloquine % SUP (TM91C235 cells; [5]): 100% | Chloroquine % sup (TM91C235 cells; [6]): 100% | Control % sup (TM91C235 cells; 50 ng/ml): 58% | Control % sup (TM91C235 cells; 500 ng/ml): 98% | Control % sup (TM91C235 cells; 5000 ng/ml): 100% | FIC index RCS (RCS): 0.51 | FIC index Peruvian PC49 (Peruvian PC49): 0.66 | FIC (fractional inhibitory concentration) index [1]: 0.32 | FIC index TM91C235 (TM91C235): 0.42

CN(C)CCCCN1c2ccccc2CCc2ccccc21 [7i, 5-(4-Dimethylaminobutyl)iminodibenzyl]
Mefloquine % SUP (TM91C235 cells; [2]): 43% | Mefloquine % SUP (TM91C235 cells; [3]): 70% | Chloroquine % sup (TM91C235 cells; [4]): 99% | Mefloquine % SUP (TM91C235 cells; [5]): 95% | Chloroquine % sup (TM91C235 cells; [6]): 100% | Control % sup (TM91C235 cells; 50 ng/ml): 59% | Control % sup (TM91C235 cells; 500 ng/ml): 73% | Control % sup (TM91C235 cells; 5000 ng/ml): 96% | FIC index RCS (RCS): 0.52 | FIC index Peruvian PC49 (Peruvian PC49): 0.62 | FIC (fractional inhibitory concentration) index [1]: 0.23 | FIC index TM91C235 (TM91C235): 0.26

CCN(CC)CCCCN1c2ccccc2Sc2ccccc21 [7b, 10-(4-Diethylaminobutyl)phenothiazine]
Mefloquine % SUP (TM91C235 cells; [2]): 17% | Chloroquine % sup (TM91C235 cells; test compound 50 ng/ml combined with 10 ng/ml chloroquine): 31% | Mefloquine % SUP (TM91C235 cells; [3]): 30% | Chloroquine % sup (TM91C235 cells; [4]): 99% | Mefloquine % SUP (TM91C235 cells; [5]): 100% | Chloroquine % sup (TM91C235 cells; [6]): 100% | Control % sup (TM91C235 cells; 50 ng/ml): 26% | Control % sup (TM91C235 cells; 500 ng/ml): 38% | Control % sup (TM91C235 cells; 5000 ng/ml): 100% | FIC index RCS (RCS): 0.41 | FIC index Peruvian PC49 (Peruvian PC49): 0.41 | FIC (fractional inhibitory concentration) index [1]: 0.23 | FIC index TM91C235 (TM91C235): 0.29

CCN(CC)CCCCN1c2ccccc2CCc2ccccc21 [7j, 5-(4-Diethylaminobutyl)iminodibenzyl]
Mefloquine % SUP (TM91C235 cells; [2]): 64% | Mefloquine % SUP (TM91C235 cells; [3]): 95% | Chloroquine % sup (TM91C235 cells; [4]): 100% | Mefloquine % SUP (TM91C235 cells; [5]): 100% | Chloroquine % sup (TM91C235 cells; [6]): 100% | Control % sup (TM91C235 cells; 50 ng/ml): 62% | Control % sup (TM91C235 cells; 500 ng/ml): 95% | Control % sup (TM91C235 cells; 5000 ng/ml): 100% | FIC index RCS (RCS): 0.57 | FIC index Peruvian PC49 (Peruvian PC49): 0.57 | FIC (fractional inhibitory concentration) index [1]: 0.39 | FIC index TM91C235 (TM91C235): 0.41

c1ccc2c(c1)CCc1ccccc1N2CCCCN1CCOCC1 [7o, 5-(4-Morpholin-4-yl-butyl)iminodibenzyl]
FIC index RCS (RCS): 0.89 | FIC index Peruvian PC49 (Peruvian PC49): 0.78 | FIC (fractional inhibitory concentration) index [1]: 0.31 | FIC index TM91C235 (TM91C235): 0.54

CCN(CC)CCCCCN1c2ccccc2CCc2ccccc21 [7u, 5-(5-Diethylaminopentyl)iminodibenzyl]
FIC index RCS (RCS): 0.36 | FIC index Peruvian PC49 (Peruvian PC49): 0.82 | FIC (fractional inhibitory concentration) index [1]: 0.44 | FIC index TM91C235 (TM91C235): 0.48

c1ccc2c(c1)Sc1ccccc1N2CCCCN1CCCC1 [compound 7e, 10-(4-Pyrrolidin-1-yl-butyl)phenothiazine]
Mefloquine % SUP (TM91C235 cells; [2]): 33% | Mefloquine % SUP (TM91C235 cells; [3]): 67% | Chloroquine % sup (TM91C235 cells; [4]): 99% | Mefloquine % SUP (TM91C235 cells; [5]): 95% | Chloroquine % sup (TM91C235 cells; [6]): 100% | Control % sup (TM91C235 cells; 50 ng/ml): 38% | Control % sup (TM91C235 cells; 500 ng/ml): 70% | Control % sup (TM91C235 cells; 5000 ng/ml): 96% | FIC index RCS (RCS): 0.51 | FIC index Peruvian PC49 (Peruvian PC49): 0.5 | FIC (fractional inhibitory concentration) index [1]: 0.21 | FIC index TM91C235 (TM91C235): 0.25

Source: patent publication US6800618B2, “Chemosensitizing agents against chloroquine resistant plasmodium falciparum and methods of making and using thereof” (The United States of America as represented by the …, priority 2001, dated 2004)
